From US4643734A, “Lactide/caprolactone polymer, method of making the same, composites thereof, and prostheses produced therefrom” (Hexcel Corporation, priority 1983, dated 1987)

Tests used:
Type in all cases: cell-based
[1] = test system: Salmonella typhimurium TA 1535; experiment: Ames plate incorporation assay, TA1535
Protocol: (§1) A Salmonella/mammalian mutagenicity test was performed to determine if a saline extract of the polymer would cause mutagenic changes in histidine dependent mutant strains of Salmonella typhimurium. The method of Ames et al as reported in Methods for Detecting Carcinogens and Mutagens with the Salmonella/Mammalian Mutagenicity Test (1975) was employed.
(§2) Test sample--a polymer, saline (0.85%) extract was prepared by adding 4 grams of sample to 20 ml of saline and autoclaving at 121° C. for one hour.
(§3) Bacterial test strains--four strains of specially constructed histidine mutants of Salmonella typhimurium, TA 98, TA 100, TA 1535 and TA 1537, developed by Dr. B. Ames, University of California, Berkeley were employed.
(§4) Activation system--S-9 Activation Mix is composed mainly of the microsomal fraction from a rat liver homogenate. The S-9 mix was used for the detection of mutagenic properties that require metabolic biotransformation to their active mutagenic form. […]
(§5) Ames plate incorporation assay--the principle technique of the Ames test consists of a plate incorporation assay from which direct revertant colony counts are obtained from the test plates. […] Following a 48 hour incubation period at 30° C., the number of colonies in each test plate are recorded as revertant colonies for comparison with spontaneous revertant rates for each strain.

[2] = test system: Salmonella typhimurium TA 1537; experiment: Ames plate incorporation assay, TA1537
Protocol: as §1, §2, §3, §4, §5

[3] = test system: Salmonella typhimurium TA 98; experiment: Ames plate incorporation assay, TA98
Protocol: as §1, §2, §3, §4, §5

[4] = test system: Salmonella typhimurium TA 100; experiment: Ames plate incorporation assay, TA100
Protocol: as §1, §2, §3
Activation system--S-9 Activation Mix is composed mainly of the microsomal fraction from a rat liver homogenate. The S-9 mix was used for the detection of mutagenic properties that require metabolic biotransformation to their active mutagenic form. S-9 mix employed was Aroclor 1254--induced(Litton Bionetics, Inc., Kensington, Md., Lot #REL 091).
Negative controls--the solvent elution vehicle was test with each bacterial strain to determine the number of spontaneous revertant colonies for each test population.
MDA requires metabolic activation to induce mutagenic results; therefore, it was tested (on strain TA 100 only) with and without S-9 mix to verify the bioactivation properties of the S-9 rat liver preparation.
Ames plate incorporation assay--the principle technique of the Ames test consists of a plate incorporation assay from which direct revertant colony counts are obtained from the test plates. Minimal nutrient agar plates are seeded with both a tester strain population and the test solution suspended together in a semi-solid overlay. Test plates are prepared providing for either the presence or absence of S-9 activation mix supplemented in the overlay. Following a 48 hour incubation period at 30° C., the number of colonies in each test plate are recorded as revertant colonies for comparison with spontaneous revertant rates for each strain.

Structure (SMILES)	Number of Revertant Colonies (Average of Duplicate Plates) ([1]; TA1535, w/S-9)	Number of Revertant Colonies (Average of Duplicate Plates) ([1]; TA1535, without S-9)	Number of Revertant Colonies (Average of Duplicate Plates) ([2]; TA1537, w/S-9)	Number of Revertant Colonies (Average of Duplicate Plates) ([2]; TA1537, without S-9)	Number of Revertant Colonies (Average of Duplicate Plates) ([3]; TA98, w/S-9)	Number of Revertant Colonies (Average of Duplicate Plates) ([3]; TA98, without S-9)	Number of Revertant Colonies (Average of Duplicate Plates) ([4]; TA100, w/S-9)	Number of Revertant Colonies (Average of Duplicate Plates) ([4]; TA100, without S-9)
CN(C)c1ccc(N=NS(=O)(=O)[O-])cc1.[Na+] [Dexon]	26.5	28.0	230.0	216.0	430.0	422.0	388.5	377.0
Nc1ccc(Cc2ccc(N)cc2)cc1 [MDA, methylene dianiline]							223.0	73.0
